From patent publication US20240101540A1, “TARGETED PROTEIN DEGRADATION OF PARP14 FOR USE IN THERAPY” (Ribon Therapeutics, Inc., priority 2022, published 2024)
Structures can show the parent of a compound that is named as a salt.

Molecular target: T1, HiBiT tagged PARP14 (Homo sapiens, UniProt Q460N5)
T1 construct: engineered to contain a HiBiT tag on both alleles of the PARP14 gene; endogenous in cells; host or cells: Jurkat cells stably transfected with LgBiT (Promega), PARP14 locus edited by CRISPR/Cas9
T1 sequence (Q460N5 whole entry): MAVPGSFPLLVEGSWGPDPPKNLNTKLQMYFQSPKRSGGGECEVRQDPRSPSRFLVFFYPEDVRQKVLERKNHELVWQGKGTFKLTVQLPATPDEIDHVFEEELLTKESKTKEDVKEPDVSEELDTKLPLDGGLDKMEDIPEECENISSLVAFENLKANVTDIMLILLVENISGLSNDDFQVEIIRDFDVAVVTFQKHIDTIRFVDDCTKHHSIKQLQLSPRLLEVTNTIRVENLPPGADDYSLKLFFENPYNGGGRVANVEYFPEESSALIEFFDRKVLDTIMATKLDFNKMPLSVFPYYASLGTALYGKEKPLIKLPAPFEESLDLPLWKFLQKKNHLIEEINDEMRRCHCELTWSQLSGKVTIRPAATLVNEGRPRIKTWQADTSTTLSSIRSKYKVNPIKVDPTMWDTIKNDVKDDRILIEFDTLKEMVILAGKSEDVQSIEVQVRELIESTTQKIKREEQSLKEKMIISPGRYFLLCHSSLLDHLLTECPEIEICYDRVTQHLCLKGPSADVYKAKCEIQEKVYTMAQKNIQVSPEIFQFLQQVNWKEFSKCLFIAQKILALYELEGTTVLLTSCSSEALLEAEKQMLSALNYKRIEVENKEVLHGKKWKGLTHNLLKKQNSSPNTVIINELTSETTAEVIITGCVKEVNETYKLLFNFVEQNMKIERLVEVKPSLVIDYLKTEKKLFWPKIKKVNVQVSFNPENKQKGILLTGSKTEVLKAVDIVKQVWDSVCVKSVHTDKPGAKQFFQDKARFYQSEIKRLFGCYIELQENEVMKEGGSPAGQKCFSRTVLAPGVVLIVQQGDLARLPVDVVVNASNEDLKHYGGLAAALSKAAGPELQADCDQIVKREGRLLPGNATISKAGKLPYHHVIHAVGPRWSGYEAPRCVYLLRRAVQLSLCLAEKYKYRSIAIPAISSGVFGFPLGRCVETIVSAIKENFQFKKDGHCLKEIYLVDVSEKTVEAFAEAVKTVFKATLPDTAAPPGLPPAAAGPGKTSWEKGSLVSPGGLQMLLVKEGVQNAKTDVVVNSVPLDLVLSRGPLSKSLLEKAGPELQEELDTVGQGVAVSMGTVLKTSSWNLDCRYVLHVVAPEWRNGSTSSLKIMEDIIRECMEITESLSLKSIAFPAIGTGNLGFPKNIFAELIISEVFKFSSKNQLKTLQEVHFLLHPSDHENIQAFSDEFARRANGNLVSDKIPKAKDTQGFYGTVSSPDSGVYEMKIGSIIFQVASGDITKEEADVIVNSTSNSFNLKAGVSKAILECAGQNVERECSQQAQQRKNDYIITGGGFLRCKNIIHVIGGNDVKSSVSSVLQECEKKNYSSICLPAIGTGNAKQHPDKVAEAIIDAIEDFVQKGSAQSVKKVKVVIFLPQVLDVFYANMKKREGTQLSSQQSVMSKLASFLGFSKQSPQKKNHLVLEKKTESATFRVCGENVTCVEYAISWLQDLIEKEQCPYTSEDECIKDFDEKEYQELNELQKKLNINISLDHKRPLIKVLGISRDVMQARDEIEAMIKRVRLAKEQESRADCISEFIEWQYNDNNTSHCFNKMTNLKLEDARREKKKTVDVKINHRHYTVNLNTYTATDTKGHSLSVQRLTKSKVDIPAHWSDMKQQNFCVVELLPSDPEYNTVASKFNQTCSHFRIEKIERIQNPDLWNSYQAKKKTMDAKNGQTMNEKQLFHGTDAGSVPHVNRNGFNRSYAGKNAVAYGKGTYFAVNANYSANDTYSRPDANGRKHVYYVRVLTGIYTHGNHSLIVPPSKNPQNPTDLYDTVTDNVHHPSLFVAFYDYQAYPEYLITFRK
Assay: HiBiT assay for the degradation of PARP14 (HiBiT tagged PARP14 in LgBiT expressing Jurkat cells, 2 or 24 hours)
Assay type: cell-based
Conditions: Assay B (Example B): HiBiT tagged PARP14 degradation in LgBiT expressing Jurkat cells, read-out: DC50
Description: Jurkat cells stably transfected with LgBiT (Promega) were engineered to contain a HiBiT tag on both alleles of the PARP14 gene (Genbank Accession Number: NM_017554) via CRISPR/Cas9 editing. The HiBiT tag is an 11 amino acid tag created by Promega that associates with LgBiT protein to form the NanoLuc® tag on the C-terminus of PARP14. Clones were isolated and confirmed for the HiBiT tag via Sanger sequencing.
Degradation of PARP14 protein was assessed by measuring the luminescence of the HiBiT tag associating with the LgBiT protein as a proxy for the PARP14 protein.
Jurkat cells were diluted to 250,000 cells per mL and then added to assay plate (Corning 3574) using a Multidrop (Thermo Fisher) to add 20 μL per well of the 384 well plate, resulting in 5,000 cells per well. 20 nL of a dose response curve diluted in DMSO of each test compound was added to the cell plate using a Mosquito (TTP Labtech) and the plate was incubated at 37° C. for 2 or 24 hours. Assay plate was brought to room temperature then 5 μL per well of Live Cell Substrate (Promega) was added to the plate. Luminescence was measured on an Envision (Perkin Elmer).
The average DMSO was calculated from 32 wells containing 0.1% DMSO only in columns 12 and 24 of the assay plate. The % of DMSO values were calculated as described below: […]
The % of DMSO values were plotted as a function of compound concentration and the following 4-parameter fit was applied to derive the DC50 values:
where top, bottom, and Hill Coefficient are allowed to float. Y is the % of DMSO and X is the compound concentration.
DC50 data for the Example compounds is provided below in Table 2 (“+” is ≤0.03 μM; “++” is ≥0.03 μM).

DC50	Structure (SMILES)
< 30 nM	O=C1CCC(Nc2ccc(N3CCN(CCN4CCC(COc5cc(F)c6c(=O)[nH]c(CC7CCCC7)nc6c5)CC4)CC3)c(F)c2)C(=O)N1 (stereo not drawn) [Example 107, 3-((4-(4-(2-(4-(((2-(cyclopentylmethyl)-5-fluoro-4-oxo-3,4-dihydroquinazolin-7-yl)oxy)methyl)piperidin-1-yl)ethyl)piperazin-1-yl)-3-fluorophenyl)amino)piperidine-2,6-dione formate]
< 30 nM	O=C1CCC(Nc2cnc(N3CCN(CCN4CCC(COc5cc(F)c6c(=O)[nH]c(CSC7CCOCC7)nc6c5)CC4)CC3)c(F)c2)C(=O)N1 (stereo not drawn) [Example 108, 3-((5-fluoro-6-(4-(2-(4-(((5-fluoro-4-oxo-2-(((tetrahydro-2H-pyran-4-yl)thio)methyl)-3,4-dihydroquinazolin-7-yl)oxy)methyl)piperidin-1-yl)ethyl)piperazin-1-yl)pyridin-3-yl)amino)piperidine-2,6-dione]
< 30 nM	O=C1CCC(Nc2ccc(OC3CC(CN4CCC(COc5cc(F)c6c(=O)[nH]c(CCC7CCOCC7)nc6c5)CC4)C3)cc2)C(=O)N1 (stereo not drawn) [Example 110]
< 30 nM	O=C1CCC(Nc2ccc(OC3CCC(CN4CCC(COc5cc(F)c6c(=O)[nH]c(CSC7CCOCC7)nc6c5)CC4)CC3)cc2)C(=O)N1 (stereo not drawn) [Example 111]
< 30 nM	O=C1CCC(Nc2ccc(N3CCC(N4CCC(COc5cc(F)c6c(=O)[nH]c(CSC7CCOCC7)nc6c5)CC4)CC3)cc2)C(=O)N1 (stereo not drawn) [Example 112, 3-((4-(4-(((5-fluoro-4-oxo-2-(((tetrahydro-2H-pyran-4-yl)thio)methyl)-3,4-dihydroquinazolin-7-yl)oxy)methyl)-[1,4′-bipiperidin]-1′-yl)phenyl)amino)piperidine-2,6-dione]
< 30 nM	O=C1CCC(Nc2ccc(N3CCC(N4CCC(COc5cc(F)c6c(=O)[nH]c(CSC7CCOCC7)nc6c5)CC4)CC3)c(F)c2)C(=O)N1 (stereo not drawn) [Example 113]
< 30 nM	O=C1CCC(Nc2ccc(N3CCC(N4CCC(COc5cc(F)c6c(=O)[nH]c(CCC7CCOCC7)nc6c5)CC4)CC3)cc2)C(=O)N1 (stereo not drawn) [Example 114]
< 30 nM	O=C1CCC(Nc2ccc(N3CCC(N4CCC(COc5cc(F)c6c(=O)[nH]c(COC7CCOCC7)nc6c5)CC4)CC3)cc2)C(=O)N1 (stereo not drawn) [Example 115]
< 30 nM	O=C1CCC(Nc2ccc(N3CCC(N4CC(N5CCC(COc6cc(F)c7c(=O)[nH]c(CSC8CCOCC8)nc7c6)CC5)C4)CC3)c(F)c2)C(=O)N1 (stereo not drawn) [Example 116, 3-((3-fluoro-4-(4-(3-(4-(((5-fluoro-4-oxo-2-(((tetrahydro-2H-pyran-4-yl)thio)methyl)-3,4-dihydroquinazolin-7-yl)oxy)methyl)piperidin-1-yl)azetidin-1-yl)piperidin-1-yl)phenyl)amino)piperidine-2,6-dione]
< 30 nM	O=C1CCC(Nc2ccc(N3CCC(CCN4CCC(COc5cc(F)c6c(=O)[nH]c(CSC7CCOCC7)nc6c5)CC4)CC3)cc2)C(=O)N1 (stereo not drawn) [Example 118, 3-((4-(4-(2-(4-(((5-fluoro-4-oxo-2-(((tetrahydro-2H-pyran-4-yl)thio)methyl)-3,4-dihydroquinazolin-7-yl)oxy)methyl)piperidin-1-yl)ethyl)piperidin-1-yl)phenyl)amino)piperidine-2,6-dione]
< 30 nM	O=C1CCC(Nc2ccc(N3CCN(CCN4CCC(COc5cc(F)c6c(=O)[nH]c(CSC7CCOCC7)nc6c5)CC4)CC3)cn2)C(=O)N1 (stereo not drawn) [Example 119]
< 30 nM	O=C1CCC(Nc2ccc(OC3CCN(CCN4CCC(COc5cc(F)c6c(=O)[nH]c(CSC7CCOCC7)nc6c5)CC4)CC3)cc2)C(=O)N1 (stereo not drawn) [Example 120, 3-((4-((1-(2-(4-(((5-fluoro-4-oxo-2-(((tetrahydro-2H-pyran-4-yl)thio)methyl)-3,4-dihydroquinazolin-7-yl)oxy)methyl)piperidin-1-yl)ethyl)piperidin-4-yl)oxy)phenyl)amino)piperidine-2,6-dione]
< 30 nM	O=C1CCC(Nc2ccc(N3CCC(N4CCN(CCOc5cc(F)c6c(=O)[nH]c(CSC7CCOCC7)nc6c5)CC4)CC3)cc2)C(=O)N1 (stereo not drawn) [Example 125]
< 30 nM	O=C1CCC(Nc2ccc(N3CCN(C4CCN(CCOc5cc(F)c6c(=O)[nH]c(CSC7CCOCC7)nc6c5)CC4)CC3)c(F)c2)C(=O)N1 (stereo not drawn) [Example 126]
< 30 nM	O=C1CCC(Nc2ccc(N3CC(N4CCC(CCOc5cc(F)c6c(=O)[nH]c(CSC7CCOCC7)nc6c5)CC4)C3)cc2)C(=O)N1 (stereo not drawn) [Example 127, 3-((4-(3-(4-(2-((5-fluoro-4-oxo-2-(((tetrahydro-2H-pyran-4-yl)thio)methyl)-3,4-dihydroquinazolin-7-yl)oxy)ethyl)piperidin-1-yl)azetidin-1-yl)phenyl)amino)piperidine-2,6-dione]
< 30 nM	O=C1CCC(Nc2ccc(N3CCC4(CC3)CC(N3CCC(COc5cc(F)c6c(=O)[nH]c(CSC7CCOCC7)nc6c5)CC3)C4)cc2)C(=O)N1 (stereo not drawn) [Example 128]
< 30 nM	O=C1CCC(Nc2ccc(N3CCN(CCN4CCC(CNc5cc6nc(CSC7CCOCC7)[nH]c(=O)c6c(F)c5F)CC4)CC3)cc2)C(=O)N1 (stereo not drawn) [Example 129, 3-((4-(4-(2-(4-(((5,6-difluoro-4-oxo-2-(((tetrahydro-2H-pyran-4-yl)thio)methyl)-3,4-dihydroquinazolin-7-yl)amino)methyl)piperidin-1-yl)ethyl)piperazin-1-yl)phenyl)amino)piperidine-2,6-dione formate]
< 30 nM	O=C1CCC(Nc2ccc(N3CC(N4CCN(CCOc5cc(F)c6c(=O)[nH]c(CSC7CCOCC7)nc6c5)CC4)C3)cc2)C(=O)N1 (stereo not drawn) [Example 130, 3-((4-(3-(4-(2-((5-fluoro-4-oxo-2-(((tetrahydro-2H-pyran-4-yl)thio)methyl)-3,4-dihydroquinazolin-7-yl)oxy)ethyl)piperazin-1-yl)azetidin-1-yl)phenyl)amino)piperidine-2,6-dione]
< 30 nM	[2H]C1([2H])N(CCN2CCC(COc3cc(F)c4c(=O)[nH]c(CSC5CCOCC5)nc4c3)CC2)C([2H])([2H])C([2H])([2H])N(c2ccc(NC3CCC(=O)NC3=O)cc2)C1([2H])[2H] (stereo not drawn) [Example 131, 3-((4-(4-(2-(4-(((5-fluoro-4-oxo-2-(((tetrahydro-2H-pyran-4-yl)thio)methyl)-3,4-dihydroquinazolin-7-yl)oxy)methyl)piperidin-1-yl)ethyl)piperazin-1-yl-2,2,3,3,5,5,6,6-d8)phenyl)amino)piperidine-2,6-dione]
< 30 nM	O=C1CCC(Nc2ccc(-c3ccc(CCN4CCC(COc5cc(F)c6c(=O)[nH]c(CSC7CCOCC7)nc6c5)CC4)cn3)cc2)C(=O)N1 (stereo not drawn) [Example 132]
< 30 nM	O=C1CCC(Nc2ccc(-c3ccc(CCN4CCC(COc5cc(F)c6c(=O)[nH]c(CSC7CCOCC7)nc6c5)CC4)nc3)cc2)C(=O)N1 (stereo not drawn) [Example 133]
< 30 nM	O=C1CCC(NC(=O)C23CC(N4CCN(CCN5CCC(COc6cc(F)c7c(=O)[nH]c(CSC8CCOCC8)nc7c6)CC5)CC4)(C2)C3)C(=O)N1 (stereo not drawn) [Example 134, N-(2,6-dioxopiperidin-3-yl)-3-(4-(2-(4-(((5-fluoro-4-oxo-2-(((tetrahydro-2H-pyran-4-yl)thio)methyl)-3,4-dihydroquinazolin-7-yl)oxy)methyl)piperidin-1-yl)ethyl)piperazin-1-yl)bicyclo[1.1.1]pentane-1-carboxamide]
< 30 nM	O=C1CCC(Nc2ccc(N3CCC(N4CCC(COc5cc(F)c6c(=O)[nH]c(COC7CCOCC7)nc6c5)CC4)CC3)c(F)c2)C(=O)N1 (stereo not drawn) [Example 135, 3-((3-fluoro-4-(4-(((5-fluoro-4-oxo-2-(((tetrahydro-2H-pyran-4-yl)oxy)methyl)-3,4-dihydroquinazolin-7-yl)oxy)methyl)-[1,4′-bipiperidin]-1′-yl)phenyl)amino)piperidine-2,6-dione formate]
< 30 nM	O=C1CCC(Nc2ccc(N3CCC(N4CC(N5CCC(COc6cc(F)c7c(=O)[nH]c(COC8CCOCC8)nc7c6)CC5)C4)CC3)c(F)c2)C(=O)N1 (stereo not drawn) [Example 136, 3-((3-fluoro-4-(4-(3-(4-(((5-fluoro-4-oxo-2-(((tetrahydro-2H-pyran-4-yl)oxy)methyl)-3,4-dihydroquinazolin-7-yl)oxy)methyl)piperidin-1-yl)azetidin-1-yl)piperidin-1-yl)phenyl)amino)piperidine-2,6-dione]
< 30 nM	O=C1CCC(Nc2ccc(N3CCN(CCN4CCC(COc5cc(F)c6c(=O)[nH]c(CSC7CCOCC7)nc6c5)CC4)CC3)c(Cl)c2)C(=O)N1 (stereo not drawn) [Example 137]
< 30 nM	O=C1CCC(Nc2ccc(N3CC4(CCC(N5CCC(COc6cc(F)c7c(=O)[nH]c(CSC8CCOCC8)nc7c6)CC5)CC4)C3)cc2)C(=O)N1 (stereo not drawn) [Example 138]

Structure (SMILES)	DC50
O=C1CCC(Nc2ccc(N3CCC(N4CCC(COc5cc(F)c6c(=O)[nH]c(CCC7CCOCC7)nc6c5)CC4)CC3)c(F)c2)C(=O)N1 (stereo not drawn) [Example 117, 3-((3-fluoro-4-(4-(((5-fluoro-4-oxo-2-(2-(tetrahydro-2H-pyran-4-yl)ethyl)-3,4-dihydroquinazolin-7-yl)oxy)methyl)-[1,4′-bipiperidin]-11′-yl)phenyl)amino)piperidine-2,6-dione]	< 30 nM
